Experimental data: patent publication US12161136B2, “Screening methods using GPRC6A taste receptors and pet food products and compositions prepared using the same” (MARS, INCORPORATED, priority 2018, dated 2024)

Tests used:
[1] = test system: cats; assay: Cat feeding test (2-bottle choice test); assay type: in vivo; conditions: 0.15 mM L-ornithine hydrochloride in water vs plain water; 24 cats; 36 hours testing time
Procedure: Cats were allowed access to water containing 0.15 mM L-ornithine hydrochloride and to plain water. The methodology used a 2-bottle choice test with 24 cats (the final number of cats for each test can vary due to data being discarded by spillage, etc.). Cats were housed individually during trial periods and had free access to water available between testing periods. The test involved a choice test between the tastant/mixture at a given concentration dissolved in deionized water versus deionized water only or another tastant/mixture. Control was made for positional bias (e.g., A/B exposure 1 and B/A exposure 2) and evaporation loss. The testing time was 36 hours (i.e., 18 hours per day, allowing a two-day crossover). Following two consecutive days of each testing, cats had two consecutive days of rest. Cats were offered a dry diet as a single meal at the start of the test period for one hour, calculated to meet the individual requirements for each cat.

[2] = test system: feline GPRC6A; assay: fGPRC6A calcium assay in HEK-293 T-REx/natClytin cells (FLIPR Tetra, Fluo-4 AM fluorescence); assay type: cell-based; conditions: for Activation of the fGPRC6A receptor (intracellular calcium response): ligand alone, K2.3 clone, doxycycline-induced, Fluo-4 AM read-out
Procedure: The HEK-293 […] cell line was stably transfected by electroporation. Briefly, 3×10^6 cells detached from 60% confluent flasks were transfected with 10 μg of DNA construct by using the Gene Pulser II electroporator (Biorad) (parameters: 300 Volts, 950 μF). […] Tetra system was used to measure fluorescence or luminescence. HEK293 cells that transiently or stably expressed the […] taste receptor, were exposed to compounds to determine whether the compounds modulated the activity of the […] receptor. In particular, […] cell line was used as recipient cell line and stable transfections were carried out using an inducible expression construct encoding for the feline GPRC6A in combination with the chimeric Ga protein Gaq[…]. Stable pools underwent a first limiting dilution (LD) and the best clones were chosen after stimulation with the reference ligand L-Arg+20 mM Mg^2+, using both a fluorescent and a luminescent read-out. Four selected first LD clones were subjected to a second round of LD; CPA was then performed in order to choose the best performing clones. On the basis of the functional data obtained at FLIPR® Tetra, the final K2.3 clone was chosen for the subsequent optimization steps. Fluorescence (Fluo-4 AM dye) was chosen as best read-out given its higher sensitivity in comparison to luminescence. In particular, cells were seeded at 7,500 cells/well and tested 48 h after seeding (Doxycycline was added at 1 μg/mL 24 h after seeding). Then, medium was removed, and cells were incubated with Fluo-4 AM dye (20 μL/well) for 1 h at 37° C. […]

| Structure (SMILES) | Average difference in intake versus plain water [1] | Activation of the fGPRC6A receptor (intracellular calcium response) [2] | Modulation of the response to the tested L-alpha-amino acids ([2]; 20 mM Mg2+ together with L-Arginine, L-Ornithine or L-Lysine) |
| --- | --- | --- | --- |
| Cl.NCCC[C@H](N)C(=O)O [L-ornithine, L-ornithine hydrochloride] | 15.28 g | – | – |
| COc1cccc([C@@H](C)NCCCc2ccccc2Cl)c1 [NPS R-568] | – | not functional | – |
| [Mg+2] [magnesium ion] | – | not activated | positive allosteric modulator |
